pEC50: −log10 of the molar value.
System: STAT1 (phosphorylated at Tyr701) in NCI-H1373 cells
Assay: Phospho-STAT1 (Tyr701) LANCE Ultra TR-FRET detection assay
Type: cell-based
Settings: Homo sapiens, NCI-H1373, 48 h, induction of pSTAT1 in NCI-H1373 cells, 48 hours incubation; normalized to 10 uM positive control and DMSO; 4-parameter fit; read-out: NH1373 pSTAT1 EC50
Experimental: Phospho-STAT1 (Tyr701 LANCE Ultra TR-FRET Detection Assay
LANCE Ultra phospho-STAT1 (Tyr701) kits are designed for the detection of phosphorylated STAT1 in cell lysates using a simple, homogeneous LANCE Ultra sandwich assay (Cat. #TRF4028M). This assay is intended for assessing compound induction of endogenous levels of cellular STAT1 (phosphorylated at Tyr701) in NCI-H1373 cells. The NCI-H1373 cells are cultured in RPMI 1640 media containing 10% heat inactivated FBS, GlutaMAX, 1% Penicillin-Streptomycin. An Echo acoustic liquid handler is used to transfer 60 nanoliters of compound dilutions using the Echo Qualified, 384-well polypropylene microplate clear flat bottom source plates into a Greiner (#781080) cell culture microplate. NCI-H1373 cells are seeded into these compound-spotted culture plates at 30,000 cells/well in a 60 uL volume in growth media. The plates are incubated in a 5% CO2 humidified incubator at 37° C. for 48 hours. […] Briefly, […] of supplemented lysis buffer is added to each well and allowed to shake for 1 hour at 400 rpm. Next, 5 ul of remixed antibody solutions (vol/vol) prepared in detection buffer are added to each well and allowed to incubate at room temperature overnight. After spinning the plate down at 300 rpm for 1 min, the plate is read on an EnVision plate reader set up for Eu3+ Cryptate and fluorescence emission is measured at two different wavelengths (665 nm and 620 nm). The HTRF ratio is then calculated ([…]) for each well to determine the amount of pSTAT1 in the cell lysate, and the data is then normalized to 10 uM (S)-5-((1-(3-oxo-3-(4-(5-(trifluoromethyl)pyrimidin-2-yl)piperazin-1-yl)propoxy)propan-2-yl)amino)-4-(trifluoromethyl)pyridazin-3(2H)-one positive and DMSO negative controls. The values were then plotted as a function of compound concentration and a 4-parameter fit was applied to derive the EC50 values.

[2H]C([2H])([2H])Oc1cnc(-c2cc3c(F)cn(C[C@@H]4CCC[C@H](Oc5cn[nH]c(=O)c5C(F)(F)F)C4)c(=O)c3c(F)c2F)nc1 [Example 51, 4,7,8-trifluoro-6-(5-(methoxy-d3)pyrimidin-2-yl)-2-(((1R,3S)-3-((6-oxo-5-(trifluoromethyl)-1,6-dihydropyridazin-4-yl)oxy)cyclohexyl)methyl)isoquinolin-1(2H)-one] was tested, and the pEC50 was 8.91.
O=c1[nH]ncc(N[C@H]2CCC[C@@H](Cn3ccc4cc(-c5ncc(-n6cccn6)cn5)c(F)cc4c3=O)C2)c1C(F)(F)F [Example 1, 7-fluoro-2-[[(1R,3S)-3-[[6-oxo-5-(trifluoromethyl)-1H-pyridazin-4-yl]amino]cyclohexyl]methyl]-6-(5-pyrazol-1-ylpyrimidin-2-yl)isoquinolin-1-one] gave a pEC50 of 8.18.
O=C1c2cc(F)c(-c3ncc(C(F)(F)F)cn3)cc2CCN1C[C@@H]1CCC[C@H](Nc2cn[nH]c(=O)c2C(F)(F)F)C1 [Example 69, 7-fluoro-2-[[(1R,3S)-3-[[6-oxo-5-(trifluoromethyl)-1H-pyridazin-4-yl]amino]cyclohexyl]methyl]-6-[5-(trifluoromethyl)pyrimidin-2-yl]-3,4-dihydroisoquinolin-1-one] gave a pEC50 of 8.34.
Work on CS(=O)(=O)c1cnc(-c2cc3ccn(C[C@@H]4CCC[C@H](Nc5cn[nH]c(=O)c5C(F)(F)F)C4)c(=O)c3cc2F)nc1 [Example 13, 7-fluoro-6-(5-(methylsulfonyl)pyrimidin-2-yl)-2-(((1R,3S)-3-((6-oxo-5-(trifluoromethyl)-1,6-dihydropyridazin-4-yl)amino)cyclohexyl)methyl)isoquinolin-1(2H)-one] yielded a pEC50 of 8.21.
O=c1[nH]ncc(N[C@H]2CCC[C@@H](Cn3cc(Cl)c4cc(-c5ncc(C(F)F)cn5)c(F)c(F)c4c3=O)C2)c1C(F)(F)F [Example 61] showed a pEC50 of 8.87.
CC(C)(O)c1cnc(-c2cc3ccn(C[C@@H]4CCC[C@H](Oc5cn[nH]c(=O)c5C(F)(F)F)C4)c(=O)c3cc2F)nc1 [Example 57, 7-fluoro-6-(5-(2-hydroxypropan-2-yl)pyrimidin-2-yl)-2-(((1R,3S)-3-((6-oxo-5-(trifluoromethyl)-1,6-dihydropyridazin-4-yl)oxy)cyclohexyl)methyl)isoquinolin-1(2H)-one] was tested, and the pEC50 was 8.74.
O=c1[nH]ncc(N[C@H]2CCC[C@@H](Cn3cc(F)c4cc(-c5ncc(OCCO)cn5)c(F)cc4c3=O)C2)c1C(F)(F)F [Example 38] was tested, and the pEC50 was 7.90.
CC(O)(c1cnc(-c2cc3ccn(C[C@@H]4CCC[C@H](Nc5cn[nH]c(=O)c5C(F)(F)F)C4)c(=O)c3c(F)c2F)nc1)C(F)F (stereo partly drawn) [Example 28, 6-(5-(1,1-difluoro-2-hydroxypropan-2-yl)pyrimidin-2-yl)-7,8-difluoro-2-(((1R,3S)-3-((6-oxo-5-(trifluoromethyl)-1,6-dihydropyridazin-4-yl)amino)cyclohexyl)methyl)isoquinolin-1(2H)-one] showed a pEC50 of 8.23.
For CC(F)(F)c1cnc(-c2cc3ccn(C[C@@H]4CCC[C@H](Nc5cn[nH]c(=O)c5C(F)(F)F)C4)c(=O)c3c(F)c2F)nc1 [Example 20, 6-(5-(1,1-difluoroethyl)pyrimidin-2-yl)-7,8-difluoro-2-(((1R,3S)-3-((6-oxo-5-(trifluoromethyl)-1,6-dihydropyridazin-4-yl)amino)cyclohexyl)methyl)isoquinolin-1(2H)-one], the pEC50 was 8.79.
Molecule O=c1[nH]ncc(N[C@H]2CCC[C@@H](Cn3ccc4cc(-c5ncc6c(n5)NCCO6)c(F)cc4c3=O)C2)c1C(F)(F)F [Example 9, 6-(7,8-dihydro-6H-pyrimido[5,4-b][1,4]oxazin-2-yl)-7-fluoro-2-(((1R,3S)-3-((6-oxo-5-(trifluoromethyl)-1,6-dihydropyridazin-4-yl)amino)cyclohexyl)methyl)isoquinolin-1(2H)-one] has a pEC50 of 8.19.
Molecule CC(F)(F)c1cnc(-c2cc3ccn(C[C@@H]4CCC[C@H](Oc5cn[nH]c(=O)c5C(F)(F)F)C4)c(=O)c3c(F)c2F)nc1 [Example 56, 6-(5-(1,1-difluoroethyl)pyrimidin-2-yl)-7,8-difluoro-2-(((1R,3S)-3-((6-oxo-5-(trifluoromethyl)-1,6-dihydropyridazin-4-yl)oxy)cyclohexyl)methyl)isoquinolin-1(2H)-one] has a pEC50 of 9.04.
For O=c1[nH]ncc(N[C@H]2CCC[C@@H](Cn3ccc4cc(-c5ncc(OC(F)F)cn5)c(F)c(F)c4c3=O)C2)c1C(F)(F)F [Example 21, 6-(5-(difluoromethoxy)pyrimidin-2-yl)-7,8-difluoro-2-(((1R,3S)-3-((6-oxo-5-(trifluoromethyl)-1,6-dihydropyridazin-4-yl)amino)cyclohexyl)methyl)isoquinolin-1(2H)-one], the pEC50 was 8.82.
With COc1cnc(-c2cc3c(cc2F)C(=O)N(C[C@@H]2CCC[C@H](Nc4cn[nH]c(=O)c4C(F)(F)F)C2)CC3)nc1 [Example 70, 7-fluoro-6-(5-methoxypyrimidin-2-yl)-2-(((1R,3S)-3-((6-oxo-5-(trifluoromethyl)-1,6-dihydropyridazin-4-yl)amino)cyclohexyl)methyl)-3,4-dihydroisoquinolin-1(2H)-one] the pEC50 was 7.95.
O=C1c2cc(F)c(-c3ncc(C(F)(F)F)cn3)cc2CN1C[C@@H]1CCC[C@H](Nc2cn[nH]c(=O)c2C(F)(F)F)C1 [Example 74, 6-fluoro-2-(((1R,3S)-3-((6-oxo-5-(trifluoromethyl)-1,6-dihydropyridazin-4-yl)amino)cyclohexyl)methyl)-5-(5-(trifluoromethyl)pyrimidin-2-yl)isoindolin-1-one] was tested, and the pEC50 was 8.04.
Work on O=c1[nH]ncc(N[C@H]2CCC[C@@H](Cn3ccc4cc(-c5nc6ccc(F)cn6n5)c(F)c(F)c4c3=O)C2)c1C(F)(F)F [Example 17, 7,8-difluoro-6-(6-fluoro-[1,2,4]triazolo[1,5-a]pyridin-2-yl)-2-(((1R,3S)-3-((6-oxo-5-(trifluoromethyl)-1,6-dihydropyridazin-4-yl)amino)cyclohexyl)methyl)isoquinolin-1(2H)-one] yielded a pEC50 of 8.94.
CS(=O)(=O)c1cnc(-c2cc3c(F)cn(C[C@@H]4CCC[C@H](Nc5cn[nH]c(=O)c5C(F)(F)F)C4)c(=O)c3cc2F)nc1 [Example 40, 4,7-difluoro-6-(5-methylsulfonylpyrimidin-2-yl)-2-[[(1R,3S)-3-[[6-oxo-5-(trifluoromethyl)-1H-pyridazin-4-yl]amino]cyclohexyl]methyl]isoquinolin-1-one] showed a pEC50 of 7.79.
O=c1[nH]ncc(N[C@H]2C[C@@H](O)C[C@@H](Cn3ccc4cc(-c5ncc(C(F)(F)F)cn5)c(F)cc4c3=O)C2)c1C(F)(F)F [Example 62, 7-fluoro-2-[[(1S,3S,5R)-3-hydroxy-5-[[6-oxo-5-(trifluoromethyl)-1H-pyridazin-4-yl]amino]cyclohexyl]methyl]-6-[5-(trifluoromethyl)pyrimidin-2-yl]isoquinolin-1-one] was tested, and the pEC50 was 7.05.
With CC(C)(O)c1cnc(-c2cc3ccn(C[C@@H]4CCC[C@H](Nc5cn[nH]c(=O)c5C(F)(F)F)C4)c(=O)c3c(F)c2F)nc1 [Example 18, 7,8-difluoro-6-(5-(2-hydroxypropan-2-yl)pyrimidin-2-yl)-2-(((1R,3S)-3-((6-oxo-5-(trifluoromethyl)-1,6-dihydropyridazin-4-yl)amino)cyclohexyl)methyl)isoquinolin-1(2H)-one] the pEC50 was 8.49.
CC(F)(F)c1cnc(-c2cc3ccn(C[C@@H]4CCC[C@H](Nc5cn[nH]c(=O)c5C(F)(F)F)C4)c(=O)c3cc2F)nc1 [Example 4, 6-(5-(1,1-difluoroethyl)pyrimidin-2-yl)-7-fluoro-2-(((1R,3S)-3-((6-oxo-5-(trifluoromethyl)-1,6-dihydropyridazin-4-yl)amino)cyclohexyl)methyl)isoquinolin-1(2H)-one] was tested, and the pEC50 was 8.65.
N#Cc1cnc(-c2cc3ccn(C[C@@H]4CCC[C@H](Nc5cn[nH]c(=O)c5C(F)(F)F)C4)c(=O)c3cc2F)nc1 [Example 2, 2-(7-fluoro-1-oxo-2-(((1R,3S)-3-((6-oxo-5-(trifluoromethyl)-1,6-dihydropyridazin-4-yl)amino)cyclohexyl)methyl)-1,2-dihydroisoquinolin-6-yl)pyrimidine-5-carbonitrile] showed a pEC50 of 7.93.
For CC(C)(O)c1cnc(-c2cc3ccn(C[C@@H]4CCC[C@H](Oc5cn[nH]c(=O)c5C(F)(F)F)C4)c(=O)c3c(F)c2F)nc1 [Example 55, 7,8-difluoro-6-(5-(2-hydroxypropan-2-yl)pyrimidin-2-yl)-2-(((1R,3S)-3-((6-oxo-5-(trifluoromethyl)-1,6-dihydropyridazin-4-yl)oxy)cyclohexyl)methyl)isoquinolin-1(2H)-one], the pEC50 was 8.81.
O=c1[nH]ncc(O[C@H]2CCC[C@@H](Cn3cc(F)c4cc(-c5ncc(C(F)F)cn5)c(F)c(F)c4c3=O)C2)c1C(F)(F)F [Example 52, 6-(5-(difluoromethyl)pyrimidin-2-yl)-4,7,8-trifluoro-2-(((1R,3S)-3-((6-oxo-5-(trifluoromethyl)-1,6-dihydropyridazin-4-yl)oxy)cyclohexyl)methyl)isoquinolin-1(2H)-one] showed a pEC50 of 8.91.
